Measured values taken from patent US20120178786A9, “Use of tetramic acid derivatives for controlling pests by drenching, drip application, or dip application” (priority 2006, published 2012).

Key:
[1] = system: Trialeurodes vaporarium (TRIAVA); assay: Example 9: drench of courgette plots, Abbott efficacy; type: in vivo; settings: four treatments of 10 mg active substance/plant at 10-day intervals, I-4 240 SC, imidacloprid 200 SL
Description: Plots approximately 12 m^2 in size and containing courgette plants (47 days after sowing) are drenched, in three replications, against Trialeurodes vaporarium (TRIAVA) with 100 ml of an active substance solution per plant, containing the active substance I-4 (cis isomer, formulation: 240 SC) and, by way of comparison, with the standard imidacloprid (200 SL) at the application rate stated. Four applications are effected at 10-day intervals. The test is evaluated 21, 31, 38 and 45 days after the 1st treatment by determining the efficacy with the aid of Abbott's formula.

Liriomyza sp. = assay: Example 14: drench of bell pepper plots, kill rate of larvae in the leaves; type: in vivo; settings: 40 + 10 + 10 mg/plant, 240 SC
Description: Plots approximately 2×5 m in size which contain bell pepper plants are treated, in three replications, against Liriomyza sp. The active substance example (I-4) cis isomer (240 SC) is drenched in an active substance solution at the application rate stated. The water application rate is 700 l/ha. Three treatments are carried out at intervals of 7 and 14 days. The test is evaluated in each case 7 days after the 2nd and 3rd treatment and 14 days after the 3rd treatment by scoring the kill rate of the larvae in the leaves.

[2] = system: foliar nematode Aphelenchoides fragariae; assay: Example 16: dip treatment of lily bulbs, number of infested plants; type: in vivo; settings: control 8
Description: The bulbs of 15 lily plants cv. “L.A. Glow” (growth stage 14/16) are dipped, in four replications, into an active substance solution containing the active substance I-4 (cis isomer, formulation: 240 SC) at the concentrations stated and subsequently planted into boxes 40×60 cm in size. The bulbs came from a field which was homogeneously infested with the foliar nematode Aphelenchoides fragariae. The number of infested plants is determined by examining leaves under the microscope for foliar nematodes 92 days after the dip treatment.

Myzus persicae (MYZUPE) = assay: Example 4: drench of aubergine plants, Abbott efficacy; type: in vivo; settings: 240 SC
Description: (§1) Aubergine plants (25 days after sowing) in 0.5-1-pots are drenched, in three replications, with 50 ml of active substance solution containing the active substance I-4 (cis isomer, formulation: 240 SC) at the application rate stated. The greenhouse temperature is 20° C. Infection with Aphis gossypii (APHIGO), Myzus persicae (MYZUPE) and Tetranychus urticae (TETRUR) is accomplished in each case seven and fourteen days after the application of the active substance. The test is evaluated in each case seven days after each infection by determining the activity with the aid of Abbott's formula.

[3] = system: Tetranychus urticae (TETRUR); assay: as above; type: in vivo; settings: 240 SC
Description: as §1

Aphis gossypii (APHIGO) = assay: as above; type: in vivo; settings: infection 7 d after application, 240 SC
Description: as §1

APHIGO = assay: Example 2: drench of cucumber plants on rock wool, Abbott efficacy; type: in vivo, Aphis gossypii; settings: 240 SC
Description: Cucumber plants cv. “Delikatess” which have been grown on rock wool are drenched, in six replications, one week after transplanting with in each case 100 ml active substance solution containing the active substance I-4 (cis isomer, formulation: 240 SC) at the application rate stated. The greenhouse temperature is 20° C. Infection with APHIGO is accomplished in each case seven and fourteen days after the application of the active substance. The test is evaluated in each case seven days after each infection by determining the activity with the aid of Abbott's formula.

MYZUPE = assay: Example 1: irrigation experiment in pots, Abbott efficacy; type: in vivo, Myzus persicae
Description: In an irrigation experiment carried out in 0.5-1-pots, Chinese cabbage, Savoy cabbage, bell peppers and broad beans which had been potted three days earlier are watered, in two replications, with 50 ml of active substance solution containing the active substance I-4 (cis isomer) at the application rates stated. The greenhouse temperature is 20° C. Infection with MYZUPE is accomplished seven and fourteen days after the application of the active substance. The test is evaluated in each case seven days after each infection by determining the activity with the aid of Abbott's formula.

[4] = system: Tetranychus urticae (TETRUR); assay: Example 5: drench of gardenia plants, Henderson-Tilton efficacy against nymphs; type: in vivo; settings: 240 SC
Description: Gardenia plants cv. “Cape jasmine” in 6-inch pots which had been infected with Tetranychus urticae (TETRUR) two weeks before the beginning of the experiment are drenched, in three replications, with in each case 100 ml of active substance solution containing the active substance I-4 (cis isomer, formulation: 240 SC) and, by way of comparison, with the commercial standard imidacloprid (240 SC) at the application rate stated. The greenhouse temperature is 25-30° C. The test is evaluated 3, 15 and 22 days after the treatment by determining the activity against nymphs on the leaves with the aid of the Henderson-Tilton method.

[5] = infection 7 d after application, 10 mg active substance/plant
[6] = infection 7 d after application, 20 mg active substance/plant
[7] = infection 14 d after application, 10 mg active substance/plant
[8] = infection 14 d after application, 20 mg active substance/plant

## CCOC(=O)OC1=C(c2cc(C)ccc2C)C(=O)N[C@]12CC[C@@H](OC)CC2 [Example I-4]
[1]; 21 d after 1st treatment
  Abbott efficacy (%) against TRIAVA: 57.5%
[1]; 31 d after 1st treatment
  Abbott efficacy (%) against TRIAVA: 85.9%
[1]; 38 d after 1st treatment
  Abbott efficacy (%) against TRIAVA: 88.5%
[1]; 45 d after 1st treatment
  Abbott efficacy (%) against TRIAVA: 85.7%
Liriomyza sp.; 7 d after 2nd treatment
  Efficacy (% Abbott) against Liriomyza sp.: 66.7 % Abbott
Liriomyza sp.; 7 d after 3rd treatment
  Efficacy (% Abbott) against Liriomyza sp.: 100 % Abbott
Liriomyza sp.; 14 d after 3rd treatment
  Efficacy (% Abbott) against Liriomyza sp.: 81.8 % Abbott
[2]; comparison: foliar treatment with 150 g/ha, 15 lily plants
  Infested plants: 6
[2]; lily bulbs dipped, a.i. 0.075 %, 15 plants, 92 days after dip treatment
  Infested plants: 0
[2]; lily bulbs dipped, a.i. 0.15 %, 15 plants, 92 days after dip treatment
  Infested plants: 0
Myzus persicae (MYZUPE); [5]
  Abbott efficacy (%) against MYZUPE: 100%
Myzus persicae (MYZUPE); [6]
  Abbott efficacy (%) against MYZUPE: 100%
Myzus persicae (MYZUPE); [7]
  Abbott efficacy (%) against MYZUPE: 100%
Myzus persicae (MYZUPE); [8]
  Abbott efficacy (%) against MYZUPE: 100%
[3]; [5]
  Abbott efficacy (%) against TETRUR: 96%
[3]; [6]
  Abbott efficacy (%) against TETRUR: 100%
[3]; [7]
  Abbott efficacy (%) against TETRUR: 73%
[3]; [8]
  Abbott efficacy (%) against TETRUR: 77%
Aphis gossypii (APHIGO); 10 mg active substance/plant
  Abbott efficacy (%) against APHIGO: 99%
Aphis gossypii (APHIGO); 20 mg active substance/plant
  Abbott efficacy (%) against APHIGO: 100%
APHIGO; [5]
  Abbott efficacy (%) against APHIGO: 100%
APHIGO; [6]
  Abbott efficacy (%) against APHIGO: 100%
APHIGO; infection 7 d after application, 40 mg active substance/plant
  Abbott efficacy (%) against APHIGO: 100%
APHIGO; [7]
  Abbott efficacy (%) against APHIGO: 91%
APHIGO; [8]
  Abbott efficacy (%) against APHIGO: 96%
APHIGO; infection 14 d after application, 40 mg active substance/plant
  Abbott efficacy (%) against APHIGO: 99%
MYZUPE; Bell pepper, infection 7 d after application, 10 mg active substance/plant
  Abbott efficacy (%) against MYZUPE: 100%
MYZUPE; Bell pepper, infection 7 d after application, 20 mg active substance/plant
  Abbott efficacy (%) against MYZUPE: 100%
MYZUPE; Bell pepper, infection 14 d after application, 10 mg active substance/plant
  Abbott efficacy (%) against MYZUPE: 100%
MYZUPE; Bell pepper, infection 14 d after application, 20 mg active substance/plant
  Abbott efficacy (%) against MYZUPE: 100%
MYZUPE; Broad bean, infection 7 d after application, 10 mg active substance/plant
  Abbott efficacy (%) against MYZUPE: 83%
MYZUPE; Broad bean, infection 7 d after application, 20 mg active substance/plant
  Abbott efficacy (%) against MYZUPE: 100%
MYZUPE; Broad bean, infection 14 d after application, 10 mg active substance/plant
  Abbott efficacy (%) against MYZUPE: 23%
MYZUPE; Broad bean, infection 14 d after application, 20 mg active substance/plant
  Abbott efficacy (%) against MYZUPE: 99%
MYZUPE; Chinese cabbage, infection 7 d after application, 10 mg active substance/plant
  Abbott efficacy (%) against MYZUPE: 100%
MYZUPE; Chinese cabbage, infection 7 d after application, 20 mg active substance/plant
  Abbott efficacy (%) against MYZUPE: 100%
MYZUPE; Chinese cabbage, infection 14 d after application, 10 mg active substance/plant
  Abbott efficacy (%) against MYZUPE: 99%
MYZUPE; Chinese cabbage, infection 14 d after application, 20 mg active substance/plant
  Abbott efficacy (%) against MYZUPE: 99%
MYZUPE; Savoy cabbage, infection 7 d after application, 10 mg active substance/plant
  Abbott efficacy (%) against MYZUPE: 100%
MYZUPE; Savoy cabbage, infection 7 d after application, 20 mg active substance/plant
  Abbott efficacy (%) against MYZUPE: 100%
MYZUPE; Savoy cabbage, infection 14 d after application, 10 mg active substance/plant
  Abbott efficacy (%) against MYZUPE: 99%
MYZUPE; Savoy cabbage, infection 14 d after application, 20 mg active substance/plant
  Abbott efficacy (%) against MYZUPE: 99%
[4]; 3 d after treatment, 77 mg active substance/1 potting compost
  Henderson-Tilton efficacy (%) against TETRUR: 39.0%
[4]; 15 d after treatment, 77 mg active substance/1 potting compost
  Henderson-Tilton efficacy (%) against TETRUR: 89.1%
[4]; 22 d after treatment, 77 mg active substance/1 potting compost
  Henderson-Tilton efficacy (%) against TETRUR: 100%

## O=[N+]([O-])NC1=NCCN1Cc1ccc(Cl)nc1 [Imidacloprid, imidacloprid, reference compound]
[1]; 21 d after 1st treatment
  Abbott efficacy (%) against TRIAVA: 88.1%
[1]; 31 d after 1st treatment
  Abbott efficacy (%) against TRIAVA: 74.0%
[1]; 38 d after 1st treatment
  Abbott efficacy (%) against TRIAVA: 77.2%
[1]; 45 d after 1st treatment
  Abbott efficacy (%) against TRIAVA: 63.7%
[4]; 3 d after treatment, 38.4 mg active substance/1 potting compost
  Henderson-Tilton efficacy (%) against TETRUR: 72.7%
[4]; 15 d after treatment, 38.4 mg active substance/1 potting compost
  Henderson-Tilton efficacy (%) against TETRUR: 82.2%
[4]; 22 d after treatment, 38.4 mg active substance/1 potting compost
  Henderson-Tilton efficacy (%) against TETRUR: 0%
